Where two headings read alike, the source gives them in different places.
How the values were obtained:
[1] = target: T1, full-length beta-Catenin (Uniprot ID P35222) (Homo sapiens, UniProt P35222); assay: Fluorescence polarization IC50 (beta-catenin / 5FAM-TCF4 10-53 competition); format: binding; conditions: fluorescence polarization; read-out: beta-Catenin FP IC50
T1 construct: 10 nM full-length beta-Catenin (Uniprot ID P35222)
T1 sequence (P35222 1-781): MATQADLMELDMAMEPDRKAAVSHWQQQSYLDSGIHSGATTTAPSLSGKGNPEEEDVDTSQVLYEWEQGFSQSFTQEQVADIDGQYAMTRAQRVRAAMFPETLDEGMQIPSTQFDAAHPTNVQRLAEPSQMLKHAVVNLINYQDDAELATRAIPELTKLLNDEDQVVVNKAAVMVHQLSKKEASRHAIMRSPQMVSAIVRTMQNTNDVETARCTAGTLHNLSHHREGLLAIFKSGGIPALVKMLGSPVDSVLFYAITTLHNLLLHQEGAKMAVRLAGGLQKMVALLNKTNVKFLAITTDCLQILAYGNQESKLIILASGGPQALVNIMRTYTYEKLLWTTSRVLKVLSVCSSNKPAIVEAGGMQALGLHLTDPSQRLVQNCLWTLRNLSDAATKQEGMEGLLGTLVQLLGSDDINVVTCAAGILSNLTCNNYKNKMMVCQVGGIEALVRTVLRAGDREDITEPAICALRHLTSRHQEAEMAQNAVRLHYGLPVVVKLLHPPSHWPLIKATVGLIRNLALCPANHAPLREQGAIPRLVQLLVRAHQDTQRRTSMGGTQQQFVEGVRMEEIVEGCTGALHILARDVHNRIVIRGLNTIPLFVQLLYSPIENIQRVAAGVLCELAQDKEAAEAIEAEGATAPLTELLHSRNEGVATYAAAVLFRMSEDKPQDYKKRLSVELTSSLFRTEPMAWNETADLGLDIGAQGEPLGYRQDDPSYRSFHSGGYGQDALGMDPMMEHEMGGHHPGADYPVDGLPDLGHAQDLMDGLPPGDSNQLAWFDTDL

[2] = target: T2, beta-catenin/TCF4 engagement (Homo sapiens, UniProt P35222); assay: Nano-BRET target engagement assay (B-cat-Halo & TCF4-Luc in HEK293 cells); format: cell-based; conditions: read-out: NanoBRET Abs IC50
T2 construct: expressed in transfected cells; host or cells: HEK293
T2 sequence (P35222 1-781): T1 sequence (P35222 1-781)

[3] = system: TCF/LEF luciferase Reporter in DLD1 cells; assay: TCF reporter assay (DLD1 TCF/LEF luciferase reporter, Bright-Glo); format: cell-based; conditions: read-out: DLD1 4% Abs IC50
How it was run: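 DLD1 cells stably carrying a TCF/LEF luciferase reporter were plated at 5000 cells/well in RPMI + 4% FBS and treated overnight with a 1:2 compound dilution series. Bright-Glo luminescence read on day 3; viability by CellTiter-Glo. Absolute IC50 determined.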

[4] = system: COLO320DM cells; format: cell-based; conditions: COLO320DM cells, read-out: COLO320DM Proliferation Abs IC50
How it was run: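 COLO320DM cells at 250 cells/well in RPMI-1640 + 4% HI FBS, dosed after 18–22 h with a 7-point […] 1/2 dilution series from 20 uM down to 313 nM.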

[5] = DLD1 reporter, 4%, absolute IC50

Structure (SMILES)	IC50 [1] [nM]	IC50 ([2]; absolute IC50) [nM]	IC50 [3, 5] [nM]	IC50 ([4]; absolute IC50) [µM]	IC50 [2] [nM]	IC50 ([3]; DLD1 4%) [nM]	IC50 [4] [µM]	IC50 ([3]; DLD1 reporter, 4%) [nM]
CC(=O)N1CCC[C@]12CC=CCCCC1(CCCC=CCCCOC(=O)N3CC[C@@](C(=O)N[C@@H](Cc4ccsc4)C(=O)N[C@@H](Cc4csc5ccccc45)C(=O)N[C@@H](CCC(N)=O)C(N)=O)(C3)NC(=O)[C@H](CC(C)C)NC(=O)[C@H](Cc3ccccc3)NC(=O)[C@H](C)NC(=O)[C@H](C)NC(=O)[C@H](Cc3cccc(C(=O)O)c3)NC(=O)[C@H](CC(=O)O)NC1=O)NC(=O)[C@H](CC(C)(C)C)NC(=O)[C@H](CC(=O)O)NC2=O (stereo partly drawn) [I-1462, Ac-PL3-Asp-Npg-B5-Asp-3COOHF-Ala-Ala-Phe-Leu-PyrS2-3Thi-BztA-Gln-NH2]	8	2300	2700	8.4				
CC(=O)N1CCC[C@]12CC=CCCCC1(CCCC=CCCCOC(=O)N3CC[C@@](C(=O)N[C@@H](Cc4ccccc4Cl)C(=O)N[C@@H](Cc4csc5ccccc45)C(=O)N[C@@H](CC(N)=O)C(=O)N[C@@H](C)C(=O)N[C@@H](C)C(=O)N[C@H](C)C(N)=O)(C3)NC(=O)[C@H](CC(C)C)NC(=O)[C@H](Cc3ccccc3)NC(=O)[C@H](C)NC(=O)[C@H](C)NC(=O)[C@H](Cc3cccc(C(=O)O)c3)NC(=O)[C@H](CC(=O)O)NC1=O)NC(=O)[C@H](CC(C)(C)C)NC(=O)[C@H](CC(=O)O)NC2=O (stereo partly drawn) [I-2041, Ac-PL3-Asp-Npg-B5-Asp-3COOHF-Ala-Ala-Phe-Leu-PyrS2-2C1F-BztA-Asn-Ala-Ala-dAla-NH2]	16				2300	1900	> 20	
CC(=O)N1CCC[C@]12CC=CCCCC1(CCCC=CCCCOC(=O)N3CC[C@@](C(=O)N[C@@H](Cc4ccsc4)C(=O)N[C@@H](Cc4csc5ccccc45)C(=O)N[C@@H](CC(N)=O)C(N)=O)(C3)NC(=O)[C@H](CC(C)C)NC(=O)[C@H](Cc3ccccc3)NC(=O)[C@H](C)NC(=O)[C@H](C)NC(=O)[C@H](Cc3cccc(C(=O)O)c3)NC(=O)[C@H](CC(=O)O)NC1=O)NC(=O)[C@H](CC(C)(C)C)NC(=O)[C@H](CC(=O)O)NC2=O (stereo partly drawn) [I-2043, Ac-PL3-Asp-Npg-B5-Asp-3COOHF-Ala-Ala-Phe-Leu-PyrS2-3Thi-BztA-Asn-NH2]	8				2800	1000	15.2	
CC(=O)N1CCN(C(=O)CC[C@@H]2NC(=O)[C@H](Cc3cccc(C(=O)O)c3)NC(=O)[C@H](CC(=O)O)NC(=O)C3(CCCC=CCCCOC(=O)N4CC[C@@](C(=O)N[C@@H](Cc5ccccc5C(F)(F)F)C(=O)N[C@@H](Cc5csc6ccccc56)C(=O)N[C@@H](C)C(N)=O)(C4)NC(=O)[C@H](CC(C)C)NC(=O)[C@H](Cc4ccccc4)NC(=O)[C@H](C)NC2=O)CCCC=CC[C@]2(CCCN2C(C)=O)C(=O)N[C@@H](CC(=O)O)C(=O)N[C@@H](CC(C)(C)C)C(=O)N3)CC1 (stereo partly drawn) [I-2319, Ac-PL3-Asp-Npg-B5-Asp-3COOHF-[AcPpz]GlnR-Ala-Phe-Leu-PyrS2-2F3MeF-BztA-Ala-NH2]	5	1000	1700	> 20				
CC(=O)N1CCC[C@]12CC=CCCCC1(CCCC=CCCCOC(=O)N3CC[C@@](C(=O)N[C@@H](Cc4ccccc4C(F)(F)F)C(=O)N[C@@H](Cc4csc5ccccc45)C(=O)N[C@@H](CO)C(N)=O)(C3)NC(=O)[C@H](CC(C)C)NC(=O)[C@H](Cc3ccccc3)NC(=O)[C@H](C)NC(=O)[C@H](C)NC(=O)[C@H](Cn3cc(CC(C)(C)C(=O)O)nn3)NC(=O)[C@H](CC(=O)O)NC1=O)NC(=O)[C@H](CC(C)(C)C)NC(=O)[C@H](CC(=O)O)NC2=O (stereo partly drawn) [I-2372, Ac-PL3-Asp-Npg-B5-Asp-[CH2CMe2CO2H]TriAzDap-Ala-Ala-Phe-Leu-PyrS2-2F3MeF-BztA-Ser-NH2]	5	2600	2100	7				
CC(=O)N1CCC[C@]12CC=CCCCC1(CCCC=CCCCOC(=O)N3CC[C@@](C(=O)N[C@@H](Cc4ccccc4C(F)(F)F)C(=O)N[C@@H](Cc4csc5ccccc45)C(=O)N[C@@H](CCC(N)=O)C(=O)N[C@@H](CC(C)C)C(=O)N[C@@H](Cc4ccccc4)C(N)=O)(C3)NC(=O)[C@H](CC(C)C)NC(=O)[C@H](Cc3ccccc3)NC(=O)[C@H](C)NC(=O)[C@H](C)NC(=O)[C@H](Cc3cccc(C(=O)O)c3)NC(=O)[C@H](CC(=O)O)NC1=O)NC(=O)[C@H](CC(C)(C)C)NC(=O)[C@H](CC(=O)O)NC2=O (stereo partly drawn) [I-2381, Ac-PL3-Asp-Npg-B5-Asp-3COOHF-Ala-Ala-Phe-Leu-PyrS2-2F3MeF-BztA-Gln-Leu-Phe-NH2]	1470	2100	1100	> 20				
CC(=O)N1CCC[C@]12CC=CCCCC1(CCCC=CCCCOC(=O)N3CC[C@@](C(=O)N[C@@H](Cc4ccccc4C(F)(F)F)C(=O)N[C@@H](Cc4csc5ccccc45)C(=O)N[C@@H](CCC(N)=O)C(=O)N[C@@H](CC(C)C)C(=O)N[C@@H](Cc4c[nH]c5ccccc45)C(N)=O)(C3)NC(=O)[C@H](CC(C)C)NC(=O)[C@H](Cc3ccccc3)NC(=O)[C@H](C)NC(=O)[C@H](C)NC(=O)[C@H](Cc3cccc(C(=O)O)c3)NC(=O)[C@H](CC(=O)O)NC1=O)NC(=O)[C@H](CC(C)(C)C)NC(=O)[C@H](CC(=O)O)NC2=O (stereo partly drawn) [I-2394, Ac-PL3-Asp-Npg-B5-Asp-3COOHF-Ala-Ala-Phe-Leu-PyrS2-2F3MeF-BztA-Gln-Leu-Trp-NH2]	535	2200	700	> 20				
CC[C@@H]1NC(=O)[C@H](Cc2ccccc2)NC(=O)[C@H](C)NC(=O)C(C)(C)NC(=O)[C@H](Cc2cccc(C(=O)O)c2)NC(=O)[C@H](CC(=O)O)NC(=O)C2(CCCC=CCCCOC(=O)N3CC[C@@](C(=O)N[C@@H](Cc4ccccc4C(F)(F)F)C(=O)N[C@@H](Cc4csc5ccccc45)C(=O)N[C@@H](CCC(=O)N(C)C)C(=O)N[C@@H](C)C(N)=O)(C3)NC1=O)CCCC=CC[C@]1(CCCN1C(C)=O)C(=O)N[C@@H](CC(=O)O)C(=O)N[C@@H](CC(C)(C)C)C(=O)N2 (stereo partly drawn) [I-2468, Ac-PL3-Asp-Npg-B5-Asp-3COOHF-Aib-Ala-Phe-Abu-PyrS2-2F3MeF-BztA-Me2Gln-Ala-NH2]	38	6200	6400	> 20				
CC[C@@H]1NC(=O)[C@H](Cc2ccccc2)NC(=O)[C@H](C)NC(=O)C(C)(C)NC(=O)[C@H](Cc2cccc(C(=O)O)c2)NC(=O)[C@H](CC(=O)O)NC(=O)C2(CCCC=CCCCOC(=O)N3CC[C@@](C(=O)N[C@@H](Cc4ccsc4)C(=O)N[C@@H](Cc4csc5ccccc45)C(=O)N[C@@H](CCC(=O)N(C)C)C(=O)N[C@@H](C)C(N)=O)(C3)NC1=O)CCCC=CC[C@]1(CCCN1C(C)=O)C(=O)N[C@@H](CC(=O)O)C(=O)N[C@@H](CC(C)(C)C)C(=O)N2 (stereo partly drawn) [I-2469, Ac-PL3-Asp-Npg-B5-Asp-3COOHF-Aib-Ala-Phe-Abu-PyrS2-3Thi-BztA-Me2Gln-Ala-NH2]	7	2300	600	5.6				
CC(=O)NCCCC[C@@H]1NC(=O)[C@H](Cc2ccccc2)NC(=O)[C@H](C)NC(=O)C(C)(C)NC(=O)[C@H](Cc2cccc(C(=O)O)c2)NC(=O)[C@H](CC(=O)O)NC(=O)C2(CCCC=CCCCOC(=O)N3CC[C@@](C(=O)N[C@@H](Cc4ccsc4)C(=O)N[C@@H](Cc4csc5ccccc45)C(=O)N[C@@H](C)C(=O)N[C@@H](C)C(N)=O)(C3)NC1=O)CCCC=CC[C@]1(CCCN1C(C)=O)C(=O)N[C@@H](CC(=O)O)C(=O)N[C@@H](CC(C)(C)C)C(=O)N2 (stereo partly drawn) [I-2578, Ac-PL3-Asp-Npg-B5-Asp-3COOHF-Aib-Ala-Phe-AcLys-PyrS2-3Thi-BztA-Ala-Ala-NH2]	5				5500		7.7	4100

From patent publication US20240116985A1, “STAPLED PEPTIDES AND METHODS THEREOF” (priority 2020, published 2024)
